# Measured values: patent US20170190671A1, “BIS(ARYL)CATECHOL DERIVATIVES AS HERBICIDES” (E I DU PONT DE NEMOURS AND COMPANY, priority 2014, published 2017)
# Experiments:
# Type in all cases: in vivo
# [1] = tested on: barnyardgrass (Echinochloa crus-galli); test: Test B flooded paddy; conditions: Echinochloa crus-galli, 336 h; 250 g ai/ha, Flood, 13 to 15 days, scale 0 (no effect) to 100 (complete control); read-out: Plant response rating, Barnyardgrass
# Method in brief: (§1)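 In-water treatment: compound dosed into 3 cm flood over soil, water level unchanged throughout. Controls run alongside; visual assessment at day 13–15.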
# [2] = tested on: ducksalad (Heteranthera limosa); test: Test B flooded paddy; conditions: Heteranthera limosa, 336 h; 250 g ai/ha, Flood, 13 to 15 days, scale 0 (no effect) to 100 (complete control); read-out: Plant response rating, Ducksalad
# Method in brief: as §1
# rice (Oryza sativa) = test: Test B flooded paddy; conditions: Oryza sativa, 336 h; 250 g ai/ha, Flood, 13 to 15 days, scale 0 (no effect) to 100 (complete control); read-out: Plant response rating, Rice
# Method in brief: as §1
# [3] = tested on: sedge, umbrella (small-flower umbrella sedge, Cyperus difformis); test: Test B flooded paddy; conditions: Cyperus difformis, 336 h; 250 g ai/ha, Flood, 13 to 15 days, scale 0 (no effect) to 100 (complete control); read-out: Plant response rating, Sedge, Umbrella
# Method in brief: as §1
# [4] = tested on: Italian ryegrass (Lolium multiflorum); test: Test A preemergence; conditions: Lolium multiflorum, pre-emergence, 240 h
# Method in brief: (§2)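 Greenhouse pot test, loam/sand soil. Formulation: non-phytotoxic solvent mix plus surfactant. Pre: directed spray onto soil after sowing. Post: plants at 1–2 leaf, 2–10 cm. Rated visually vs untreated controls at ~10 d, 0 (no effect) to 100 (complete control).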
# [5] = tested on: barnyardgrass (Echinochloa crus-galli); test: Test A preemergence; conditions: Echinochloa crus-galli, pre-emergence, 240 h
# Method in brief: as §2
# [6] = tested on: giant foxtail (Setaria faberii); test: Test A preemergence; conditions: Setaria faberi, pre-emergence, 240 h
# Method in brief: as §2
# kochia (Kochia scoparia) [7] = test: Test A preemergence; conditions: Bassia scoparia, pre-emergence, 240 h
# Method in brief: as §2
# [8] = tested on: pigweed (Amaranthus retroflexus); test: Test A preemergence; conditions: Amaranthus retroflexus, pre-emergence, 240 h
# Method in brief: as §2
# [9] = tested on: ragweed (common ragweed, Ambrosia elatior); test: Test A preemergence; conditions: Ambrosia artemisiifolia, pre-emergence, 240 h
# Method in brief: as §2
# [10] = tested on: Italian ryegrass (Lolium multiflorum); test: Test A postemergence; conditions: Lolium multiflorum, post-emergence, 240 h, 0 to 100 scale, read-out: Plant response rating, Ryegrass, Italian
# Method in brief: as §2
# [11] = tested on: barnyardgrass (Echinochloa crus-galli); test: Test A postemergence; conditions: Echinochloa crus-galli, post-emergence, 240 h, 0 to 100 scale, read-out: Plant response rating, Barnyardgrass
# Method in brief: as §2
# [12] = tested on: blackgrass (Alopecurus myosuroides); test: Test A postemergence; conditions: Alopecurus myosuroides, post-emergence, 240 h, 0 to 100 scale, read-out: Plant response rating, Blackgrass
# Method in brief: as §2
# corn (Zea mays) = test: Test A postemergence; conditions: Zea mays, post-emergence, 240 h, 0 to 100 scale
# Method in brief: as §2
# [13] = tested on: galium (catchweed bedstraw, Galium aparine); test: Test A postemergence; conditions: Galium, post-emergence, 240 h, 0 to 100 scale, read-out: Plant response rating, Galium
# Method in brief: as §2
# [14] = tested on: giant foxtail (Setaria faberii); test: Test A postemergence; conditions: Setaria faberi, post-emergence, 240 h, 0 to 100 scale, read-out: Plant response rating, Foxtail, Giant
# Method in brief: as §2
# kochia (Kochia scoparia) [15] = test: Test A postemergence; conditions: Bassia scoparia, post-emergence, 240 h, 0 to 100 scale, read-out: Plant response rating, Kochia
# Method in brief: as §2
# [16] = tested on: pigweed (Amaranthus retroflexus); test: Test A postemergence; conditions: Amaranthus retroflexus, post-emergence, 240 h, 0 to 100 scale, read-out: Plant response rating, Pigweed
# Method in brief: as §2
# [17] = tested on: ragweed (common ragweed, Ambrosia elatior); test: Test A postemergence; conditions: Ambrosia artemisiifolia, post-emergence, 240 h, 0 to 100 scale, read-out: Plant response rating, Ragweed
# Method in brief: as §2
# [18] = tested on: wheat (Triticum aestivum); test: Test A postemergence; conditions: Triticum aestivum, post-emergence, 240 h, 0 to 100 scale, read-out: Plant response rating, Wheat
# Method in brief: as §2
smiles,measurement,setting,value
"FC(F)c1cnc(Oc2c(Br)cccc2Oc2ncc(Cl)cn2)s1 [Compound 10, 2-[3-bromo-2-[[5-(difluoromethyl)-2-thiazolyl]oxy]phenoxy]-5-chloropyrimidine]",pest or weed control at 250 g/ha,[1],0%
same,pest or weed control at 250 g/ha,[2],0%
same,plant injury at 250 g/ha,rice (Oryza sativa),0%
same,pest or weed control at 250 g/ha,[3],0%
same,pest or weed control at 31 g/ha,"[4]; 31 g ai/ha, 0 to 100 scale (0 no effect, 100 complete control), read-out: Ryegrass, Italian plant response rating",0%
same,pest or weed control at 125 g/ha,"[4]; 125 g ai/ha, 0 to 100 scale, read-out: Plant response rating, Ryegrass, Italian",40%
same,pest or weed control at 31 g/ha,"[5]; 31 g ai/ha, 0 to 100 scale (0 no effect, 100 complete control), read-out: Barnyardgrass plant response rating",0%
same,pest or weed control at 125 g/ha,"[5]; 125 g ai/ha, 0 to 100 scale, read-out: Plant response rating, Barnyardgrass",30%
same,pest or weed control at 31 g/ha,"[6]; 31 g ai/ha, 0 to 100 scale (0 no effect, 100 complete control), read-out: Foxtail, Giant plant response rating",40%
same,pest or weed control at 125 g/ha,"[6]; 125 g ai/ha, 0 to 100 scale, read-out: Plant response rating, Foxtail, Giant",90%
same,pest or weed control at 31 g/ha,"kochia (Kochia scoparia) [7]; 31 g ai/ha, 0 to 100 scale (0 no effect, 100 complete control), read-out: Kochia plant response rating",0%
same,pest or weed control at 125 g/ha,"kochia (Kochia scoparia) [7]; 125 g ai/ha, 0 to 100 scale, read-out: Plant response rating, Kochia",50%
same,pest or weed control at 31 g/ha,"[8]; 31 g ai/ha, 0 to 100 scale (0 no effect, 100 complete control), read-out: Pigweed plant response rating",90%
same,pest or weed control at 125 g/ha,"[8]; 125 g ai/ha, 0 to 100 scale, read-out: Plant response rating, Pigweed",100%
same,pest or weed control at 31 g/ha,"[9]; 31 g ai/ha, 0 to 100 scale (0 no effect, 100 complete control), read-out: Ragweed plant response rating",0%
same,pest or weed control at 125 g/ha,"[9]; 125 g ai/ha, 0 to 100 scale, read-out: Plant response rating, Ragweed",0%
same,pest or weed control at 31 g/ha,[10]; 31 g ai/ha,0%
same,pest or weed control at 125 g/ha,[10]; 125 g ai/ha,60%
same,pest or weed control at 31 g/ha,[11]; 31 g ai/ha,0%
same,pest or weed control at 125 g/ha,[11]; 125 g ai/ha,20%
same,pest or weed control at 31 g/ha,[12]; 31 g ai/ha,10%
same,pest or weed control at 125 g/ha,[12]; 125 g ai/ha,70%
same,"Corn plant response rating (crop injury, 0 = no effect, 100 = complete kill) at 31 g/ha",corn (Zea mays); 31 g ai/ha,0%
same,"Corn plant response rating (crop injury, 0 = no effect, 100 = complete kill) at 125 g/ha",corn (Zea mays); 125 g ai/ha,10%
same,pest or weed control at 31 g/ha,[13]; 31 g ai/ha,50%
same,pest or weed control at 125 g/ha,[13]; 125 g ai/ha,100%
same,pest or weed control at 31 g/ha,[14]; 31 g ai/ha,0%
same,pest or weed control at 125 g/ha,[14]; 125 g ai/ha,20%
same,pest or weed control at 31 g/ha,kochia (Kochia scoparia) [15]; 31 g ai/ha,20%
same,pest or weed control at 125 g/ha,kochia (Kochia scoparia) [15]; 125 g ai/ha,80%
same,pest or weed control at 31 g/ha,[16]; 31 g ai/ha,90%
same,pest or weed control at 125 g/ha,[16]; 125 g ai/ha,100%
same,pest or weed control at 31 g/ha,[17]; 31 g ai/ha,0%
same,pest or weed control at 125 g/ha,[17]; 125 g ai/ha,30%
same,plant injury at 31 g/ha,[18]; 31 g ai/ha,0%
same,plant injury at 125 g/ha,[18]; 125 g ai/ha,0%
